Results from patent publication US20210386812A1, “DEVELOPMENT OF HEALTH FOOD SUPPLEMENTS AND ANTIOXIDANTS FOR CONTROLLING HYPERURICEMIA AND OXIDATIVE STRESS” (Baylor College of Medicine, priority 2018, published 2021).
Several values for one entry are separate records, joined by “and”; a condition that tells them apart may be missing. Identical values can stand only once. Entries after “also recorded” stand apart in the source; their conditions may differ. Like-named read-outs stand apart in the source and are kept apart here.

Tests used:
[1] = biological target: T1, Xanthine oxidase (XO) (Homo sapiens, UniProt P47989); test: Xanthine oxidase (XO) inhibition assay in a cell-free system; conditions: for XO activity inhibition (in words): increasing concentrations
T1 sequence (P47989 whole entry, species assumed): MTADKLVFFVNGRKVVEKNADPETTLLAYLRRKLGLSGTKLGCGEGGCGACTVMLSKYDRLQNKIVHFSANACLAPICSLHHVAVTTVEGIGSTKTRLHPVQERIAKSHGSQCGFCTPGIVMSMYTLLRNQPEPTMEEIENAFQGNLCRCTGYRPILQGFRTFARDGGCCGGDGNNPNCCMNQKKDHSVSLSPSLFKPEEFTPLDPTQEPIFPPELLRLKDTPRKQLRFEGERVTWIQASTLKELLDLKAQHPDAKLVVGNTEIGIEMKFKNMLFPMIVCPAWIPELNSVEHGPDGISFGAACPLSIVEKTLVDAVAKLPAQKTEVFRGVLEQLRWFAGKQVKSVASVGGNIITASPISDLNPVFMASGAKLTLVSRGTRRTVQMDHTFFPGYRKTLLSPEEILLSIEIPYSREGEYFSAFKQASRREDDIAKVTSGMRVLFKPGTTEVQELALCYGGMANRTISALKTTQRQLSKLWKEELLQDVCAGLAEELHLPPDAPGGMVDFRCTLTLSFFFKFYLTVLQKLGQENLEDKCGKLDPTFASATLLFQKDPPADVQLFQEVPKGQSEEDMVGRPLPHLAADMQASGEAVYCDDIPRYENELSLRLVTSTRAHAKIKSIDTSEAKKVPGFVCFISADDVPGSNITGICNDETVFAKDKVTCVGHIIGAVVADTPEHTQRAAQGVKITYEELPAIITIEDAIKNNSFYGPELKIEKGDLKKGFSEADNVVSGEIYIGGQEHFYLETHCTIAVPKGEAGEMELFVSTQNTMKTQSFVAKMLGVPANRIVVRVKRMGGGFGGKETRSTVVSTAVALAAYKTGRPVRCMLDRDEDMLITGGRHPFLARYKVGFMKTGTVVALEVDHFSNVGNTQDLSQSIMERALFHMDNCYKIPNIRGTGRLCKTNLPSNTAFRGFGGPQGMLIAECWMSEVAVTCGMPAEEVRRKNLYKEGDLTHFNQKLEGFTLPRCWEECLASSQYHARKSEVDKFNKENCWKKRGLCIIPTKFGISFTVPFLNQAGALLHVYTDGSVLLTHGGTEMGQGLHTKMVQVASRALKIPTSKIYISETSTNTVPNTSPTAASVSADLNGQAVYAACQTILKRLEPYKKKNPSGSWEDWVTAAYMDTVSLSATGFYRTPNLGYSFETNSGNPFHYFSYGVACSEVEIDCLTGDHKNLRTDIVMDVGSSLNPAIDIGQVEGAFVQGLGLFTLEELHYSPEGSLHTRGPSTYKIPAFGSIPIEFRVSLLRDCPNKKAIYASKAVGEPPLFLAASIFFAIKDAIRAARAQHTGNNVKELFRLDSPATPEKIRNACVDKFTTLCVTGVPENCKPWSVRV
Procedure: All 72 herb extracts (100 g) are in the powder form. Each extract was dissolved in water or DMSO respectively with strong votex, at stock concentration of 50 mg/ml. The solution was kept at room temperature for 30 min before centrifugation at 14k rpm. The clear solution was used for assay of XO inhibitory activity. XO activity was determined using the method of continuous spectrophotometric rate measurements (60). The reaction mixture contained xanthine in 67 mM phosphate buffer (pH 7.4) and 20 nM XO with an activity of 5 uU/mL, with or without extract solution. After pre-incubating the extract (at 0-10 ul) with XO for 1 min at 25° C., 50 uM xanthine was added to initiate the formation of uric acid, and the increase of absorption of uric acid at 295 nm was monitored in a dynamic mode. Initial rate of XO activity was recorded. […] For initial screen of herb extracts, final concentration of each extract was 163 ug/ml. Percentage of inhibition is calculated: Percentage of inhibition=(1−test OD/blank OD)×100
XO inhibition assay for folic acid related molecules is similar to that for herb extracts. Folic acids were dissolved in DMSO. Dose-dependent of folic acids and photolysis effect were studied.
Furthermore, we performed a dose dependent XO inhibition assay for each of these 14 extracts (DMSO-soluble fractions). […] IC50 is an operational parameter defined as the concentration of inhibitor required for achieving 50% inhibition of the enzyme.
Folic acid and its two derivatives, dihydrofolic acid and tetrahydrofolic acid, were employed in the XO inhibition assay. When 20 nM XO was mixed with increasing concentrations of folic acid, dihydrofolic acid and tetrahydrofolic acid.
The initial rate of uric acid formation in the reaction system was recorded; and XO inhibition rate of each herb extract was calculated.
Furthermore, a dose dependent XO inhibition assay was performed for each of these 15 extracts. […] IC50 is an operational parameter defined as the concentration of inhibitor required for achieving 50% inhibition of the enzyme.

[2] = tested on: XO; conditions: in vitro; cited from earlier work
[3] = tested on: serum uric acid; test: Hypouricemic effect in allantoxanamide-treated mice; assay type: in vivo, C57BL/6 mice; conditions: Allantoxanamide 200 mg/kg i.p., at both 1.5 hours and 3 hours; Allopurinol 13.3 mg/kg, recipe 41.7 and 83.4 mg/kg
Procedure: Recipe includes Japanese Thistle Extract, Grape Seed Extract, Amla Fruit Extract, Pine Bark Extract, Chinese Mint Extract and Folic acid. Mice were Intraperitoneally (i.p.)-injected with uricase inhibitor allantoxanamide to induce hyperuricemia in mice. […] Blood was taken from facial vein at 1.5 hour and 3 hour after the treatment. Serum uric acid level was measured the next day with a phosphotunstate method. N=4 per group.
Mouse experiment design, method and results. […] Folic acid solution was prepared separately by dissolving 2.6 mg folic acid in 1 ml 0.1 m potassium phosphate buffer, then 6 ul of this FA solution was added to the 10 ml extract solution.
Adult C57BL/6 mice (about 20 g body weight) were used. Four groups of mice (n=4 per group) were assigned for different treatments or controls (Table 12). Intraperitoneal (i.p.) injection of uricase inhibitor allantoxanamide can effectively block the conversion of uric acid to 5-hydroxyisourate and thus cause a marked increase in serum uric acid levels in mice, providing a hyperuricemic animal model (34). […] Blood was taken from facial vein at 1.5 hours and 3 hours after the treatment. Serum uric acid level was measured with a phosphotunstate method.

[4] = cited from earlier work
[5] = biological target: T1, Xanthine oxidase (XO); test: XO inhibition combination assay of herb extract with folic acid or 5-MTHF, added separately without pre-mixing; conditions: read-out: XO activity inhibition
Procedure: All 14 traditional Chinese medicine herb extracts were tested. Folic acid (0.167 uM) and extract (13.3 ug/ml) were separately added into the XO reaction system without pre-mixing. XO activity was measured.
Fresh prepared 5-MTHF (3.3 uM) and herb extract (13.3 ug/ml) was added to XO reaction system separately, XO activity was recorded.
Eight herbal extracts were selected and tested. Folic acid (0.167 uM) and each extract at a defined concentration (ug/ml) were separately added into the XO reaction system without pre-mixing. XO activity was measured.
Based on the result of dose-dependent XO inhibition experiments for herb extracts and folic acid, a relatively small concentration of each extract (a total of 14 extracts) and folic acid were utilized for a combination assay.
Folic acid (0.167 uM) and extract (13.3 ug/ml) were separately added into the XO reaction system without pre-mixing. XO activity was measured.
The inventors also tested the combination of 5-MTHF with different traditional Chinese medicine herb extracts for their effect on XO activity in vitro (FIG. 10).
Based on the result of dose-dependent XO inhibition experiments for herb extracts and folic acid, a relatively small concentration of each of 8 herbal extracts and folic acid were selected for a combination assay. […] XO activity was measured (FIG. 13).

Row | XO activity inhibition (in words) ([1]; 20 nM XO) | SMILES | XO inhibitory potency relative to a comparator (in words) ([1]; cell-free system) | XO inhibitory effect (literature) [2] | also measured
1 | significantly inhibited XO activity | Nc1nc2c(c(=O)[nH]1)NC(CNc1ccc(C(=O)N[C@@H](CCC(=O)O)C(=O)O)cc1)CN2 (stereo partly drawn) [tetrahydrofolic acid] | more potent than folic acid | stronger than that of folic acid | XO inhibitory potency relative to a comparator (in words) ([1]; cell-free system, listed as tetrahydrofolic): dihydrofolic acid>tetrahydrofolic>folic acid
2 | – | Oc1ncnc2[nH]ncc12 [Allopurinol] | – | – | Serum uric acid levels [3]: significantly reduced serum uric acid levels
3 | – | Cc1nc(-c2ccc(OCC(C)C)c(C#N)c2)sc1C(=O)O [febuxostat] | – | – | Patients with transaminase elevations greater than three times the upper limit of normal ([4]; in some studies): 2-3%; Patients with cutaneous adverse effects ([4]; initial clinical studies): about 2%
4 | significantly inhibited XO activity | Nc1nc2c(c(=O)[nH]1)N=C(CNc1ccc(C(=O)N[C@@H](CCC(=O)O)C(=O)O)cc1)CN2 [dihydrofolic acid] | dihydrofolic acid>tetrahydrofolic>folic acid | stronger than that of folic acid | XO inhibitory potency relative to a comparator (in words) ([1]; cell-free system, listed as Dihydrofolic acid): more potent than folic acid
5 | significantly inhibited XO activity | Nc1nc2ncc(CNc3ccc(C(=O)N[C@@H](CCC(=O)O)C(=O)O)cc3)nc2c(=O)[nH]1 [folic acid] | stronger than Allopurinol and DHNB | – | IC50 [1]: 0.75 µM; inhibition at 0.167 µM [5]: 16.5%
6 | – | O=Cc1cc(O)c(O)c([N+](=O)[O-])c1 [DHNB, 3,4-Dihydroxy-5-nitrobenzaldehyde] | – | – | IC50 [1]: 3 µM
7 | – | Nc1nc2ncc(C=O)nc2c(=O)[nH]1 [6-formyl pterin] | – | very potent XO inhibitor | –
8 | – | Nc1nc2ncc(C(=O)O)nc2c(=O)[nH]1 [pterin-6-carboxylic acid] | – | no XO inhibitory effect | –

Row | SMILES | XO activity inhibition (in words) ([1]; 20 nM XO) | XO inhibitory potency relative to a comparator (in words) ([1]; cell-free system) | XO inhibitory effect (literature) [2] | also measured
9 | CN1c2c(nc(N)[nH]c2=O)NCC1CNc1ccc(C(=O)N[C@@H](CCC(=O)O)C(=O)O)cc1 (stereo partly drawn) [Extract 5-MTHF, 5-methyl tetrahydrofolate] | effectively inhibited XO activity; also recorded: inhibited XO activities in a concentration-dependent manner | weaker than folic acid | – | IC50 ([1]; read-out: IC50 for XO inhibition, 20 nM XO, cell-free system): ~35.6 µM and 35.6 µM
